Measured values reported in patent publication US10106519B2, “3-phenyl-7-hydroxy-isocoumarins as macrophage migration inhibitory factor (MIF) inhibitors” (The Provost, Fellows, Foundation Scholars, & the Other …, priority 2014, dated 2018).
Entries after “also recorded” stand apart in the source; their conditions may differ. Values belong to the compound of their own block, whether it stands above or below them.

Columns and labels:
[1] = test system: LPS mediated PGE-2 production; experiment: PGE-2 production in LPS treated RAW macrophage cells (ELISA); type: cell-based, murine; conditions: 100 μM inhibitor, 100 ng/ml LPS (FIG. 4)
Method: Raw macrophage murine cells were plated at a cell density of 1×10^5 and pre-treated with 100 μM of each of the inhibitors […] for 30 minutes at 37° C. in a humidified 5% CO2 incubator. Raw macrophage cells were then treated with 100 ng/ml of LPS and supernatants were collected after 16 hours at 37° C. in a humidified 5% CO2 incubator and analysed for PGE-2 production. Levels of PGE-2 were measured by ELISA. (CAT # KGE004 R&D Syst).

PGE-2 = conditions: increasing concentrations; cited from earlier work
[2] = test system: LPS induced TNF-α production; experiment: Inhibition of LPS induced TNF-α production in RAW 264.7 macrophage cells (ELISA); type: cell-based, mouse
Method: RAW 264.7 macrophage cells were plated at 1×10^5/ml in 450 μl of medium in a 48 well plate. 16 hours later cells were treated with ISO-1 or Tautomerase Inhibitors at a final concentration of 10, 50 or 100 μM for 30 minutes before stimulation with 100 ng/ml LPS. Supernatants were collected after 20 hours for determination of TNF-α levels. TNF-α levels were determined using a TNF-α specific ELISA (CAT # DY410 R&D Syst).
96 well plates were coated with 50 μl of Capture Antibody ([…]) in PBS and sealed and incubated overnight at 4° C. Plates were then washed three times in 0.05% PBS Tween and plates blotted. Plates were blocked by adding 150 μl of 1% BSA in PBS (Gibco—cat no. 14190-094) to each well and incubated at room temperature for 2 hours. Plates were washed again as previously described. 50 μl of sample or standard was added to each well and incubated for overnight at 4° C. Plates were then washed again as described. 50 μl of the detection Antibody (200 ng/ml) in 1% BSA in PBS was added to each well and incubated for 2 hours at room temperature. Plates were then washed again as described. 50 μl of working concentration of Streptavidin—HRP was added to each well and plates were covered and incubated for 20 minutes at room temperature. 50 μl of substrate solution (One OPD tablet and one urea hydrogen peroxide/buffer tablet were dissolved in 20 ml of water to yield a ready to use buffered solution, Sigma—cat no. 9187-50) was added to each well and incubated for 20 minutes at room temperature. 25 μl of 2N H2SO4 was added to each well to stop the reaction. The optical density of each well was then measured with a spectrophotometer at 450 nm.
Initially the panel of 25 novel potential tautomerase inhibitors was screened in an in-vitro system. In order to do this we exploited the fact that MIF is needed for optimal LPS induced TNF-α production. We therefore reasoned that our potential TIs should be able to inhibit LPS induced TNF-α in RAW macrophage murine cells. RAW macrophage murine cells were plated at 37° C. in a humidified 5% CO2 incubator. 16 hours later the cells were pre-treated with each of the inhibitors at concentration of 100, 50 or 10 μM for 30 minutes 100 ng/ml of LPS was then added to the cells and supernatants were collected after 16 hours and analysed for TNF-α production by ELISA.

[3] = test system: LPS induced TNF-α production; conditions: RAW 264.7 cell line, previously shown; cited from earlier work
[4] = test system: circulating levels of TNF-α; conditions: LPS induced model of murine sepsis; cited from earlier work
prostate cancer cells = conditions: cited from earlier work
[5] = test system: Lewis Lung carcinoma cells (LLC); experiment: LLC-GLuc proliferation assay with rMIF; type: cell-based, mouse; conditions: 100 μM inhibitor, 100 ng/ml rMIF, 48 hours (FIG. 5)
Method: LLC-GLuc cells were plated in a 6 well plate at a density of 5×10^4 cells/ml in DMEM supplemented with P/S, 10% FCS and L-Glu. After overnight adherence, 100 ng/ml MIF was added along with the inhibitors or DMSO to a total of 1 ml serum free medium. Cells were harvested after 48 hours by trypsinisation and counted in a haemocytometer.
The ability of candidate compounds to reduce cellular proliferation was also examined. For this assay, LLC cells were plated at a cell density of 5×10^4 cells/ml. The cells were then pre-treated with TI 19 or ISO-1 at a concentration of 100 μM. The cells were then treated with 100 ng/ml of recombinant MIF. The cells were incubated at 37° C. in a humidified 5% CO2 incubator and after 48 hours the cells were harvested and counted.

[6] = test system: Lewis Lung carcinoma cells; experiment: Subcutaneous LLC1 tumour model with in vivo tautomerase inhibitor treatment; parameters: species or system C57BL/6 mice; conditions: 35 mg/kg intraperitoneally 30 min prior to inoculation and twice weekly, day 28 (FIG. 8)
Method: Log phase cultures of LLC-1 cells were harvested by trypsinisation and washed three times with sterile phosphate buffered saline (PBS) and resuspended at a cell density of 5×10^5/ml in PBS. Animals were shaved with an electric shaver 24 hours before subcutaneous injection. 5×10^5 Lewis Lung cells were injected subcutaneously into the left flank of C57BL/6 mice of 6-8 weeks. Animals were monitored for the duration of the experiment and tumour measurements were recorded twice weekly with a digital callipers. Tumour volume (mm^3) was calculated as 0.5×L×W^2, where length is representative of the larger tumour diameter and the width represents the smaller tumour diameter. Animals are sacrificed when tumours reach a diameter of 15 mm or if tumours become ulcerated. Tumours are then removed along with the lungs, spleen and liver.
30 minutes prior to LLC-1 inoculation, inhibitors (TI 19/ISO-1) were administered at a concentration of 35 mg/kg in a volume of 100 μl 5% DMSO in sterile PBS. Control groups were given injections of vehicle 5% DMSO in sterile PBS or sterile PBS alone. Animals were treated twice weekly for four weeks.
In order to assess the antitumour activity of the novel tautomerase inhibitors in vivo, a subcutaneous LLC-1 cell model was set up. The subcutaneous model was chosen so that tumours could be easily visualised and measured during the course of the experiment and to allow assessment of the growth of the tumour in real time. Lewis Lung carcinoma cells (5×10^5) were injected sub-cutaneously into the left flank of C57BL/6 mice. Caliper measurements were taken twice weekly and tumour volume (mm^3) was calculated as 0.5×L×W^2. […] The cut off point for this model was when the tumour measured 15 mm in diameter. This model gave us an indication of normal tumour growth in this subcutaneous model. It can be seen from this model that from day 22 to day 28 the size of the tumour grows considerably.
Once it was determined that the enzymatic activity played a role in the growth of tumours, the subcutaneous LLC model was then used to assess the efficiency of the small weight molecular inhibitors. C57/B16 mice were injected intraperitoneally with 35 mg/kg of each of the inhibitors 30 minutes prior to subcutaneous tumour inoculation and again twice weekly for 4 weeks. Animals were monitored daily and tumour measurements taken until the tumour measured 15 mm in diameter.

MIF tautomerase = target: T1, MIF tautomerase (Homo sapiens, UniProt P14174); experiment: MIF tautomerase inhibition assay; type: biochemical; conditions: structure activity relationship studies (FIG. 10)
T1 construct: host or cells: E. coli BL21
T1 sequence (P14174 2-115 limits assumed): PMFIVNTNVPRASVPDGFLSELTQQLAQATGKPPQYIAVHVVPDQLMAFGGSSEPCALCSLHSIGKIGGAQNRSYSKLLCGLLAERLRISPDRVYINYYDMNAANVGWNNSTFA
Method: Human recombinant MIF was purified as per Bernhagen et al. (Biochemistry, 1994. 33(47): p. 14144-55). Briefly, BL21 E. coli cells expressing the pET11b-MIF construct were grown to an absorbance at 600 nm (OD) of […]. Isopropyl 1-thio-P-D-galactopyranoside (IPTG) (Sigma—cat no. 16758) was added to a final concentration of 1 mM to induce expression of the MIF gene and incubated for another 3 hours. Bacteria were then harvested by centrifugation and the cell pellets were then frozen. Protein purification was then out sourced to Scottish Biomedical, where the bacterial pellets were thawed and resuspended in 3 ml of Tris-buffered saline. The bacteria were then lysed by adding an equivalent number of glass beads and vortexing strongly for 10 minutes. Glass beads were removed by centrifugation at 1000 g for 10 minutes and the bacterial extract was centrifuged at 1000 g for a further 30 minutes. The supernatant was then sterile-filtered through a […] membrane filter and put through a MONO Q anion exchange chromatography column. MIF was eluted using Tris-buffered saline in the first flow-through fractions and pooled and placed on ice. These pooled fractions were then applied to a C8-SepPak reverse phase column. Unbound material was eluted by washing with water and 20% acetonitrile/water. MIF was then eluted using 6 column volumes of 60% acetonitrile/water. This sample was then renatured by dissolving MIF at a concentration of […] in 20 mM sodium phosphate buffer containing 8M urea and 5 mM DTT and dialysed against 20 mM sodium phosphate buffer. […]
L-dopachrome methyl ester was prepared at 2.4 mM through oxidation of L-3,4-dihydroxyphenylalanine methyl ester with sodium periodate. The solution was mixed well and placed at room temperature for 5 minutes before being placed on ice in the dark. 100 ng of rMIF was added to each of the Tautomerase Inhibitors or ISO-1 at a number of concentrations (1, 50 and 100 μM) with substrate. The decrease in absorbance was measured with a spectrophotometer at 475 nm every 10 seconds for 10 minutes.
The rate of the reaction of rMIF and substrate alone was measured over time at 475 nm. This was compared to the rate of this reaction with the addition of 100 μM of each of the inhibitors. Inhibition was calculated as the percentage in the reduction of the rate of change with the addition of the inhibitor averaged over five minutes.

[7] = comparative analysis, same assay

SMILES: COC(=O)CC1CC(c2ccc(O)cc2)=NO1 (stereo not shown) [ISO-1, reference compound]
- reduction of LPS mediated PGE-2 production, in words [1]: significantly reduces
- production of PGE-2, in words (PGE-2): reduce the production of PGE-2 in a dose dependant manner
- reduction of TNF-α production ([2]; 100 μM inhibitor 30 minutes before 100 ng/ml LPS (FIG. 2A)): 20%
- TNF-α production induced by LPS, in words [3]: inhibit TNF-α production induced by addition of LPS
- circulating levels of TNF-α, in words [4]: reduce circulating levels of TNF-α
- cell proliferation, in words (prostate cancer cells): decreased cell proliferation in prostate cancer cells
- reduction of MIF induced proliferation, in words [5]: less so; also recorded: reduced the MIF induced proliferation
- reduction in tumour growth / tumour size [6]: over 50%

SMILES: COc1ccc2cc(-c3ccccc3C)oc(=O)c2c1 [SDG-23]
- tautomerase inhibitory activity of analogues, in words (MIF tautomerase): did not significantly inhibit MIF tautomerase

SMILES: Cc1cccc(-c2cc3ccc(O)cc3c(=O)o2)c1 [SDG-47, 3-(3′-methylphenyl)-7-hydroxyisocoumarin]
- tautomerase inhibitory activity of analogues, in words (MIF tautomerase): almost complete inhibition of MIF tautomerase activity

SMILES: O=c1oc(-c2ccccc2O)cc2ccccc12 [SDG-50]
- tautomerase inhibitory activity of analogues, in words (MIF tautomerase): dramatic loss in tautomerase inhibition activity

SMILES: COc1cc2c(=O)oc(-c3ccccc3C)cc2cc1C [SDG-51, 3-(2′-methylphenyl)-6-methyl-7-methoxyisocoumarin]
- tautomerase inhibitory activity of analogues, in words (MIF tautomerase): did not significantly inhibit MIF tautomerase

SMILES: COc1cc2cc(-c3ccccc3C)oc(=O)c2cc1OC [SDG-53, 3-(2′-methylphenyl)-6,7-dimethoxyisocoumarin]
- tautomerase inhibitory activity of analogues, in words (MIF tautomerase): did not significantly inhibit MIF tautomerase

SMILES: Cc1ccccc1-c1cc2cc(O)c(O)cc2c(=O)o1 [SDG-54, 3-(2′-methylphenyl)-6,7-hydroxyisocoumarin]
- inhibition of MIF tautomerase activity, analogues of TI 19 (MIF tautomerase): 86%
- tautomerase inhibitory activity of analogues, in words (MIF tautomerase): almost complete inhibition of MIF tautomerase activity

Now from value to compound, other results behind:

- inhibition of MIF tautomerase activity, analogues of TI 19 (MIF tautomerase): > 90%
SMILES: Cc1ccccc1-c1cc2ccc(O)cc2c(=O)o1 [SDG-22, 3-(2′-methylphenyl)-7-hydroxyisocoumarin]
- reduction of TNF-α production, comparative analysis ([2]; LPS stimulated RAW macrophage murine cells, 100 μM (FIG. 11)): 97%
- more effective than ISO-1 in reducing TNF-α production [2, 7]: 80%
- more effective than TI 19 in reducing TNF-α production [2, 7]: 10%
- reduction of TNF-α production, in words ([2]; concentration not given): significant reduction in TNF-α production
- tautomerase inhibitory activity of analogues, in words (MIF tautomerase): very effective inhibitor of MIF tautomerase; also recorded: most effective tautomerase inhibitor identified to date; also recorded: significantly more potent than TI 19

- tautomerase inhibitory activity of analogues, in words (MIF tautomerase): dramatic loss of inhibitory activity
SMILES: Cc1cc2ccccc2c(=O)o1 [SDG-40]

- tautomerase inhibitory activity of analogues, in words (MIF tautomerase): ineffective as a tautomerase inhibitor
SMILES: Cc1ccccc1-c1cc2ccccc2c(=O)[nH]1 [SDG-42]

- tautomerase inhibitory activity of analogues, in words (MIF tautomerase): inactivity
SMILES: O=c1oc(-c2ccccc2)cc2ccccc12 [SDG-46]

- tautomerase inhibitory activity of analogues, in words (MIF tautomerase): some inhibitory activity
SMILES: Cc1cc2cc(-c3ccccc3C)oc(=O)c2cc1O [SDG-52, 3-(2′-methylphenyl)-6-methyl-7-hydroxyisocoumarin]
